Test results: patent US20080188499A1, “Carbo- and Hetero-Cyclic Antibiotics and Use Thereof” (priority 2004, published 2008)
Converted amounts (≈) assume the structure as drawn. Read-outs that look alike come from different tables or passages of the source.

Legend:
E. faecalis = experiment: MIC determination, Enterococci; type: cell-based; details: Enterococcus faecalis
Method: (§1) Bacteria. Susceptibility tests were performed against several bacterial species following the recommendations from the National Committee for […] (NCCLS). The MICs were determined by a broth microdilution technique using a final volume of 100 μl of cation-adjusted Mueller Hinton Broth (MHBCA) and a bacterial inoculum of 10^5-10^6 Colony Forming Units (CFU)/ml. The inocula were verified and precisely determined by applying 10 μl drops of 10 fold dilutions onto Triptic Soy Agar plates. The CFU were counted after an incubation of 24 h at 35° C. Any experiment showing an inoculum that was more or less than 10^5-10^6 CFU/ml was rejected. Control antibiotics and test compounds were prepared at a concentration equivalent to 2 fold the highest desired final concentration. Compounds were then diluted directly in the 96-well microtiter plates by serial 2-fold dilutions using a multichannel pipette. Microtiter plates were incubated for 24 h at 35° C. and growth was recorded by using a microtiter plate reader at 650 nm as well as by visual observation. The MIC was defined as the lowest concentration of compound yielding no visible growth. At least two commercial antibiotics (e.g., imipenem and vancomycin) were always included as internal microtiter plate controls in each MIC assay.

[1] = test system: Branhamella (Moraxella) catarrhalis; experiment: MIC determination, Branhamella (Moraxella) catarrhalis; type: cell-based
Method: as §1
(§2) Fastidious bacteria. […]

anaerobic bacteria = experiment: MIC determination, anaerobic bacteria; type: cell-based; details: Bacteroides fragilis
Method: as §1, §2

[2] = test system: bacterial genus Mycobacterium; experiment: MIC determination, Mycobacterium; type: cell-based, Mycobacterium smegmatis
Method: as §1, §2

MRSA strains = experiment: MIC determination by broth microdilution, antibiotic multi-resistant MRSA strains; type: cell-based, S. aureus
Method: as §1

Haemophilus influenzae = experiment: MIC determination, Haemophilus influenzae; type: cell-based
Method: as §1, §2

[3] = test system: Methicillin-Sensitive S. aureus strains (MSSA); experiment: MIC determination, Methicillin-Sensitive S. aureus; type: cell-based; details: Staphylococcus aureus
Method: as §1

Yersinia enterocolytica = experiment: MIC determination, Yersinia enterocolytica; type: cell-based
Method: as §1

B. subtilis = experiment: MIC determination, B. subtilis; type: cell-based; details: Bacillus subtilis
Method: as §1

B. atrophaeus = experiment: MIC determination, B. atrophaeus; type: cell-based; details: Bacillus atrophaeus
Method: as §1

B. cereus = experiment: MIC determination, B. cereus; type: cell-based; details: Bacillus cereus
Method: as §1

Burkholderia cepacia = experiment: MIC determination, Burkholderia cepacia; type: cell-based
Method: as §1

E. coli ATCC 25922 = experiment: MIC determination by broth microdilution, E. coli; type: cell-based, Escherichia coli
Method: as §1

DNA metabolism = experiment: Mode of action studies: macromolecular biosynthesis assays (incorporation of radiolabeled precursors); type: cell-based; details: FIG. 1; initial mode of action studies
Method: Mode of action studies. Macromolecular biosynthesis assays were performed to identify the microbial cellular processes selectively affected by antibiotic compounds. Exponentially growing bacteria in MHB were washed and diluted in a complete synthetic medium to an optical density of 0.2 (at 600 nm). Cells were then distributed in 96-well plates containing serially diluted antibiotic compounds and radiolabeled precursors. The radiolabeled precursors were D-[^3H]-alanine for peptidoglycan synthesis, [^3H]-thymidine for DNA synthesis, [^3H]-uridine for RNA synthesis and [^3H]-leucine for protein synthesis. Incorporation was allowed for 30 minutes at 35° C. before macromolecules were precipitated for 1 hour on ice in the presence of 10% trichloroacetic acid. The radioactive precipitates were then collected onto GC filters and the radioactivity measured by liquid scintillation counting. Data were expressed as the percentage of radioactivity incorporated compared to control cells grown in the absence of antibiotic compound.

S. aureus strain Newman = experiment: In vivo efficacy: S. aureus model of systemic infection in the mouse; details: for antimicrobial activity in vivo (viable bacteria in the kidneys): S. aureus systemic infection, administrated by gavage 1 hour post-infection, kidneys 5 hours after inoculation
Method: In vivo efficacy. The antimicrobial activity of compounds was also evaluated in a S. aureus model of systemic infection in the mouse. To produce the systemic infection, CD-1 female mice (20 g) were injected intra-peritoneally with 10^7 CFU of S. aureus strain Newman suspended in 0.5 ml of endotoxin-free PBS containing 5% mucin (w/v). The compounds were administrated at 1 hour post-infection and kidneys harvested and pooled, for each animal, 5 hours after bacterial inoculation. Tissues were homogenized in PBS and homogenates serially diluted and plated for CFU determination.

[4] = Escherichia coli, ATCC25922, E. coli ATCC 25922, read-out: MIC

CN1CCN(c2cc3nc(/C=C/c4ccc([N+](=O)[O-])o4)nc(Nc4ccc(O)c(O)c4)c3cc2F)CC1 [Example VIII compound “q”]
MIC (E. faecalis): 8 µg/mL (≈ 15.8 µM) | MIC [1]: 1 µg/mL (≈ 1.97 µM) | MIC (anaerobic bacteria): 8 µg/mL (≈ 15.8 µM) | MIC [2]: 8 µg/mL (≈ 15.8 µM) | MIC (MRSA strains; Staphylococcus aureus, MRSA, MRSA strain Sa211c, read-out: MIC): 8 µg/mL (≈ 15.8 µM) | MIC (MRSA strains; Staphylococcus aureus, MRSA, MRSA strain Sa212c, read-out: MIC): 8 µg/mL (≈ 15.8 µM) | MIC (MRSA strains; Staphylococcus aureus, MRSA, MRSA strain Sa220c, read-out: MIC): 4 µg/mL (≈ 7.9 µM) | MIC (MRSA strains; Staphylococcus aureus, MRSA, MRSA strain Sa224c, read-out: MIC): 8 µg/mL (≈ 15.8 µM) | MIC (MRSA strains; Staphylococcus aureus, MRSA, MRSA strain Sa228c, read-out: MIC): 8 µg/mL (≈ 15.8 µM) | MIC (MRSA strains; Staphylococcus aureus, MRSA, MRSA strain Sa234c, read-out: MIC): 8 µg/mL (≈ 15.8 µM) | MIC (MRSA strains; Staphylococcus aureus, MRSA, MRSA strain Sa248c, read-out: MIC): 8 µg/mL (≈ 15.8 µM) | MIC (MRSA strains; Staphylococcus aureus, MRSA, MRSA strain Sa249c, read-out: MIC): 8 µg/mL (≈ 15.8 µM) | MIC (MRSA strains; Staphylococcus aureus, MRSA, MRSA strain Sa253c, read-out: MIC): 8 µg/mL (≈ 15.8 µM) | MIC (MRSA strains; Staphylococcus aureus, MRSA, Methicillin-Resistant S. aureus strains (MRSA), read-out: MIC): 4 to 8 µg/mL (≈ 7.9 to 15.8 µM) | MIC (Haemophilus influenzae): 1 µg/mL (≈ 1.97 µM) | MIC [3]: 4 to 8 µg/mL (≈ 7.9 to 15.8 µM) | MIC (Yersinia enterocolytica): 8 µg/mL (≈ 15.8 µM) | MIC (B. subtilis): 8 µg/mL (≈ 15.8 µM) | MIC (B. atrophaeus): 8 µg/mL (≈ 15.8 µM) | MIC (B. cereus): 8 µg/mL (≈ 15.8 µM) | MIC (Burkholderia cepacia): 8 µg/mL (≈ 15.8 µM)

CN[C@H](CC(C)C)C(=O)N[C@H]1C(=O)N[C@@H](CC(N)=O)C(=O)N[C@H]2C(=O)N[C@H]3C(=O)N[C@H](C(=O)N[C@H](C(=O)O)c4cc(O)cc(O)c4-c4cc3ccc4O)[C@H](O)c3ccc(c(Cl)c3)Oc3cc2cc(c3O[C@@H]2O[C@H](CO)[C@@H](O)[C@H](O)[C@H]2O[C@H]2C[C@](C)(N)[C@H](O)[C@H](C)O2)Oc2ccc(cc2Cl)[C@H]1O [Vancomycin]
MIC (E. coli ATCC 25922; Escherichia coli, ATCC25922): > 64 µg/mL

Gentamicin [reference compound]
MIC (E. coli ATCC 25922; E. coli ATCC 25922): 0.5 to 2 µg/mL | MIC (MRSA strains; MRSA strain Sa211c): 1 µg/mL | MIC (MRSA strains; MRSA strain Sa212c): 0.25 µg/mL | MIC (MRSA strains; MRSA strain Sa220c): 0.5 µg/mL | MIC (MRSA strains; MRSA strain Sa224c): 0.25 µg/mL | MIC (MRSA strains; MRSA strain Sa228c): 32 µg/mL | MIC (MRSA strains; MRSA strain Sa234c): 1 µg/mL

CCn1cc(C(=O)O)c(=O)c2cc(F)c(N3CCNCC3)cc21 [Norfloxacin]
MIC (E. coli ATCC 25922; [4]): 0.03 to 0.06 µg/mL (≈ 0.0939 to 0.188 µM)

O=[N+]([O-])c1ccc(C=Cc2nc(Nc3ccc(O)c(O)c3)c3ccccc3n2)o1 [Example 1, Compound VI, 2-[2-(5-nitro-2-furyl)vinyl]-4-(3,4-dihydroxyanilino)quinazoline]
MIC (E. coli ATCC 25922; [4]): 0.5 µg/mL (≈ 1.28 µM) | mode of action (cellular process affected, incorporation of radiolabeled precursors into macromolecules) (DNA metabolism): inhibition of DNA metabolism | toxicity in vivo (S. aureus strain Newman; S. aureus systemic infection model): relatively low toxicity | antimicrobial activity in vivo (viable bacteria in the kidneys) (S. aureus strain Newman; listed as 2-[2-(5-nitro-2-furyl)vinyl]-4-(3,4-dihydroxyanilino)-quinazoline): active in vivo | antimicrobial activity in vivo (viable bacteria in the kidneys) (S. aureus strain Newman; listed as Example 1 compound VI): reduced the presence of viable bacteria in the kidneys
